Literature values, collected in patent US20040059096A1, “Anti-ciguatoxin monoclonal antibody” (priority 2001, published 2004).

Settings: species and route not given

Structure (SMILES): C[C@@H]1C[C@@H]2O[C@@H]3[C@@H](C)[C@H](O)[C@@H]4OC5(C[C@H](O)CO5)[C@@H](C)[C@H](C)[C@H]4O[C@H]3C[C@H]2O[C@H]2C[C@H]3O[C@@H]4/C=C\C[C@H]5O[C@H]6C=C[C@H]7O[C@H]8[C@H](O)[C@H]9O[C@@H](/C=C/[C@H](O)CO)C=CC[C@@H]9O[C@@H]8C[C@@H]7O[C@@H]6C=C[C@@H]5O[C@@H]4C[C@@H](O)[C@]3(C)O[C@@H]2C1 (stereo partly shown) [CTX]
- LD50: 0.35 µg/kg
